Experimental data from patent US20250205384A1, “HEMOSTATIC MATERIAL” (Toray Industries, Inc., priority 2018, published 2025).

Assays:
[1] = Thickness of lipid membrane from SEM observation image; assay type: physicochemical; conditions: lipid on PLLA fiber sheet, SEM ×5,000 (FIGS. 17 to 20)
Method: The thickness of the lipid membrane is preferably 10 to 1,000 nm, more preferably 30 to 500 nm, and still more preferably 60 to 240 nm. The method of measuring the lipid membrane is as follows. The lipid membrane is observed with a scanning electron microscope (SEM). The thickness of five points optionally selected in the SEM observation image is measured, and the mean is regarded as the thickness of the lipid membrane.
An SEM observation image (×1,000) of the base complex before supporting a lipid is shown in FIG. 9, and SEM observation images (×1,000) of the hemostatic materials E2 to E8 are shown in FIGS. 10 to 16, respectively.

[2] = Solubility in t-butyl alcohol; conditions: in words
guinea pig-derived PRP = assay: Evaluation of platelet aggregation capacity of hemostatic material (in vitro), protein assay of attached platelets; assay type: cell-based; conditions: lipid supported on base part in place of DHSG lipids
Method: From the hemostatic materials D1, D2, D3 and D4, a base part (fiber sheet part) supporting DHSG, Asp-DHSG, Glu-DHSG and AG-DHSG, respectively, was taken out. To a 12-well plate, the base part (fiber sheet part) that was taken out and 1 mL of guinea pig-derived PRP (2.0×10^5/μL) prepared by the abovementioned method were added. Thereafter, ADP (1 μM, 100 μL) that activates platelets was added, and after allowing to stand at room temperature for 5 minutes, the mixture was washed with 1 mL of DPBS twice. Thereafter, to dissolve platelets attached to the base part (fiber sheet part), 500 μL of 0.5% Triton X was added, followed by allowing to stand at room temperature for 1 hour to obtain a platelet lysate. To a 96-well plate, 10 μL of the platelet lysate prepared by the abovementioned method and 150 μL of Pierce (trademark) 660 nm Protein Assay Kit were added, followed by allowing to stand for 5 minutes. By measuring absorbance at 660 nm using a microplate reader, proteins were quantitatively determined, and the determination results were used as an index of the count of platelets which were not washed away and were attached to the fiber sheet. The results in FIG. 8 are relative values when the platelet count in using the hemostatic material D1 is regarded as 1. […]

| thickness of the lipid membrane [1] [nm] | SMILES | other results |
| --- | --- | --- |
| 124 | CCCCCCCCCCCCCCCCOC(=O)CCC(NC(=O)CCC(=O)NC(CCC(=O)NC(CC(=O)O)C(=O)O)C(=O)NC(CC(=O)O)C(=O)O)C(=O)OCCCCCCCCCCCCCCCC (stereo not drawn) [AG-DHSG] | – |
| – | CCCCCCCCCCCCCCCC(=O)OCC(COP(=O)(O)O)OC(=O)CCCCCCCCCCCCCCC (stereo not drawn) [Anionic DPPA] | solubility in t-butyl alcohol compared with the DPPA sodium salt [2]: higher solubility in t-butyl alcohol |
| 153 | CCCCCCCCCCCCCCCCOC(=O)CCC(NC(=O)CCC(=O)NC(CC(=O)O)C(=O)O)C(=O)OCCCCCCCCCCCCCCCC (stereo not drawn) [Asp-DHSG] | – |
| 131 | CCCCCCCCCCCCCCCCOC(=O)CCC(NC(=O)CCC(=O)O)C(=O)OCCCCCCCCCCCCCCCC [DHSG, 1,5-Dihexadecyl-N-Succinyl-L-Glutamate] | – |
| – | CCCCCCCCCCCCCCCC(=O)OC[C@H](COP(=O)([O-])OCC[N+](C)(C)C)OC(=O)CCCCCCCCCCCCCCC [DPPC, 1,2-dipalmitoyl-sn-glycero-3-phosphatidylcholine] | platelets detected on the base part (fiber sheet part) after washing (guinea pig-derived PRP): no platelets were detected |
| 187 | CCCCCCCCCCCCCCCCOC(=O)CCC(NC(=O)CCC(=O)NC(CCC(=O)O)C(=O)O)C(=O)OCCCCCCCCCCCCCCCC (stereo not drawn) [Glu-DHSG] | – |
